The source of these data is patent US20090239926A1, “METHODS FOR THE TREATMENT OF PSORIASIS OR PSORIATIC ARTHRITIS USING CYCLOPROPYL-N-CARBOXAMIDE” (priority 2008, published 2009).

“And” between values parts separate entries of the source, which are not always exact repeats. Equal values may be shown once.

A word on the IC50: it is the concentration that gives 50% inhibition. As a reminder, the inhibition is the drop in the measured response relative to a control, in per cent.

For data set [1], the system named is collagen-induced arthritis in male DBA/1 mice. Description: Type II collagen-induced mice arthritis model. Format: in vivo. The following applies: 25 mg/kg orally once a day for 10 days. The procedure: Collagen-Induced Arthritis Animal Model: Type II collagen purified from the cartilage of a young calf was dissolved at 4 mg/ml in 0.1M acetic acid and emulsified with an equal volume of complete Freund's adjuvant (CFA). DBA/1 mice (8-12 weeks of age) were then immunized at two sites at the base of the tail on Day 1 with 100 μl of the emulsion.
Treatment regime and measurement of clinical score: 14 animals per test group were treated orally once a day for 10 days (Days 1-10) with vehicle (0.5% carboxymethyl-cellulose/0.25% Tween 80), or Compound A suspended in vehicle at 5 mg/kg or 25mg/kg. The experiment was terminated on Day 10. Mice were monitored daily for signs of arthritis and scored using an established clinical scoring system, where: 0=normal, 1=slight swelling and/or erythema, and 2=pronounced edematous swelling. Each limb was graded, giving a maximum score of 8 per mouse. In addition, paw-swelling was measured using calipers.
Histology: At the end of the experiment, paws from treated mice were fixed in formal saline, decalcified and embedded in wax, sectioned and stained with hematoxylin and eosin. […]

Another data set has as its system spontaneous behavior. Description: Spontaneous behavior (LABORAS) in non-arthritic mice. Format: in vivo. Conditions: 25 mg/kg/day. The procedure: Behavioral studies: The effect of Compound A (25 mg/kg/day) on spontaneous behavior was assessed using the LABORAS (Laboratory Animal Behavior Observation Registration and Analysis System), which is an automated system that detects vibrations evoked by movement of a single rodent in a cage. Pattern recognition software then recognizes and quantifies behaviors, including grooming, activity, climbing, immobility, and feeding.

Data set [2] relates to TNF-α production by synoviocytes from rheumatoid arthritis patients. Description: TNF-α production by human rheumatoid synovial membrane cells. Format: cell-based. Conditions: 48 hours culture, ELISA. As to the method: Human Rheumatoid Synovial Membrane Cell: Rheumatoid synovial membrane tissue samples were processed to dissociate the cells from the matrix by digesting the tissue with Collagenase A and DNAse. The cells were then plated into a 96-well flat-bottom plate at 1×10^6/well in RPMI (10% FCS) and treated with Compound A and controls (in triplicate). The cells were cultured for 48 hours at 37° C. in 5% CO2 before supernatants were harvested and analyzed by ELISA.
Compound A was solubilized under sterile conditions in filter-sterilized dimethyl sulphoxide (DMSO). The vehicle control contained the same concentration of DMSO used as the diluent in the highest concentration of drug used. A combined treatment of anti-TNF-α and IL-1RA, both at 10 μg/ml, was used as a positive control.

A further data set has as its target human PDE2 (Homo sapiens, UniProt O00408). The data set can be described thus: Specificity: PDE2. In kind it is biochemical. The procedure:
(§1) The specificity of Compound A for PDE4 was assessed by testing at a single concentration (10 μM) against bovine PDE1, human PDE2, PDE3 and PDE5 from human platelets, and PDE6 from bovine retinal rod outer segments.

In data set [3] the target is T1, PDE3 from human platelets (Homo sapiens, UniProt Q14432).
T1 construct: PDE3 and PDE5 from human platelets; from tissue; host or cells: human platelets
T1 sequence (Q14432 whole entry): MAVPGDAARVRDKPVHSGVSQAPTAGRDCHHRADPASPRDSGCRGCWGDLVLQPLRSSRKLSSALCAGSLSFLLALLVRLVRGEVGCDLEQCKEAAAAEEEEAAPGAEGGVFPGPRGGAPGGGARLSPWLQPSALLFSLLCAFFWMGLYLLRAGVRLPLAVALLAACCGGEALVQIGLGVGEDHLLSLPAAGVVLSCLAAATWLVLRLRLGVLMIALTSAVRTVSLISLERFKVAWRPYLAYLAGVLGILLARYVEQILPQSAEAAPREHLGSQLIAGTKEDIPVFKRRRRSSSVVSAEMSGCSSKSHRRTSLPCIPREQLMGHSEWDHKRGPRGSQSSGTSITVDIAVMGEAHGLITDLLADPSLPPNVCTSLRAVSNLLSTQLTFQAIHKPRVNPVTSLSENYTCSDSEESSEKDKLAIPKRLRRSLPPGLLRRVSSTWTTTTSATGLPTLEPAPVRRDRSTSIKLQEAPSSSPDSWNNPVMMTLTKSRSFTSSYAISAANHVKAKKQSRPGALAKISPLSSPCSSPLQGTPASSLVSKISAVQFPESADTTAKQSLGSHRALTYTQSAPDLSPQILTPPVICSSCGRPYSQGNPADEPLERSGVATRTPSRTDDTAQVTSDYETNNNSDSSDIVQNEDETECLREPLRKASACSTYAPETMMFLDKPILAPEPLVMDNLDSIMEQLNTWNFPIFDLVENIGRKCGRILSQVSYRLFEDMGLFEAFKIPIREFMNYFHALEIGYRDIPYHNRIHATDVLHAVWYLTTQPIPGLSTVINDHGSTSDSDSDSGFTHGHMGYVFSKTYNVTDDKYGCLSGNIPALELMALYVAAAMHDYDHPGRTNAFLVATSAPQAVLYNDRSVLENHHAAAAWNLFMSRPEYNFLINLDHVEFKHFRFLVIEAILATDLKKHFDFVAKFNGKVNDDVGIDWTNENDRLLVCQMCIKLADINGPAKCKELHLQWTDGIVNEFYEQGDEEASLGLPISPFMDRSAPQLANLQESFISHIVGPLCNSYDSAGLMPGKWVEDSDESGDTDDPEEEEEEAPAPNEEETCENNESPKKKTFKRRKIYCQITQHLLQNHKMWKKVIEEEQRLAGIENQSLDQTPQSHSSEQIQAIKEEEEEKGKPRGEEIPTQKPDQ
The data set can be described thus: Specificity: PDE3. Format: biochemical. The procedure: as §1

In data set [4] the test system is CD11b expression on neutrophils. Description: fMLF-induced neutrophil CD11b expression. In kind it is cell-based. Conditions: Homo sapiens, 0.5 h, 30 nM fMLF, 30 minutes, flow cytometry. As to the method: CD18/CD11b (Mac-1) expression on neutrophils was measured with the following modifications. (Derian, C. K., et al., J Immunol, 1995. 154(1): 308-17). Neutrophils were isolated as described above, then resuspended in complete medium at 1×10^6 cells/ml, pretreated with Compound A at 10, 1, 0.1, 0.01, and 0 μM in duplicate at a final DMSO concentration of 0.1% for 10 minutes at 37° C. 5% CO2. Cells were then stimulated with 30 nM fMLF for 30 minutes and then chilled to 4° C. Cells were treated with rabbit IgG (Jackson ImmunoResearch Labs, West Grove, Pa., USA) (10 μg/1×10^6 cells) to block Fc receptors, stained with CD18-FITC and CD11b-PE (Becton Dickinson), and analyzed by flow cytometry on a FACSCalibur. CD18/CD11b expression (mean fluorescence) in the absence of stimulation was subtracted from all samples to obtain inhibition curves and calculate IC50.
Background: In flow cytometry, cells or beads pass a laser one at a time.

human PDE2, sequence (O00408 whole entry): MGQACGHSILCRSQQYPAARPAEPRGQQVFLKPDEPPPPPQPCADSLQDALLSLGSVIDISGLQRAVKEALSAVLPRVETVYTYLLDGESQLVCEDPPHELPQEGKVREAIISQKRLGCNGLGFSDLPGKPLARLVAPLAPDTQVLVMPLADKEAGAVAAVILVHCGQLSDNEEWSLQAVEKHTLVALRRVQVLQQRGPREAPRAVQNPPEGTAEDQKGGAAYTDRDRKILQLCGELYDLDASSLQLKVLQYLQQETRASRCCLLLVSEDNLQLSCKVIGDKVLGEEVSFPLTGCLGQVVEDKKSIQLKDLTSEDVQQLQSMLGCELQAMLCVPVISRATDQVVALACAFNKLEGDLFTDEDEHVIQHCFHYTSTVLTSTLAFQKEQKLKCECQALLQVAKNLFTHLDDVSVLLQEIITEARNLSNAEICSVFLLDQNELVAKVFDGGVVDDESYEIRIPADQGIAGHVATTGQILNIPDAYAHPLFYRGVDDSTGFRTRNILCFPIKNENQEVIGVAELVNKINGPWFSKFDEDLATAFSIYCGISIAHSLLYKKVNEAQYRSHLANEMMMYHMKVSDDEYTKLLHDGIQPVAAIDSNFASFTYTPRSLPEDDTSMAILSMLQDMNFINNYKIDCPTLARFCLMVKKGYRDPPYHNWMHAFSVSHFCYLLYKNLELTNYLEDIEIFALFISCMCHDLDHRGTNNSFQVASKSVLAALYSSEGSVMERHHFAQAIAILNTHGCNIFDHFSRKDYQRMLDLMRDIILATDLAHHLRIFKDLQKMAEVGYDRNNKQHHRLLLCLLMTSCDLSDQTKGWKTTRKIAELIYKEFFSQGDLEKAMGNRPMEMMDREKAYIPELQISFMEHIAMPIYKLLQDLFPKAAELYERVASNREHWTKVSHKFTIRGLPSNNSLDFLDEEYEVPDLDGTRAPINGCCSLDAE

As for `CCOc1cc([C@@H](CS(C)(=O)=O)N2Cc3cccc(NC(=O)C4CC4)c3C2=O)ccc1OC` [Compound A, cyclopropyl-N-{2-[(1S)-1-(3-ethoxy-4-methoxyphenyl)-2-(methylsulfonyl)ethyl]-3-oxoisoindoline-4-yl}carboxamide], the “clinical severity of arthritis (clinical score)” value in data set [1] (FIG. 3) is “effective in reducing the clinical severity of arthritis”. Further, the “histological severity of arthritis” value in data set [1] (P<0.05, FIG. 4) was “reduced the histological severity of arthritis”. In the data set with spontaneous behavior, the effect on climbing result is given as “little or no effect”, the effect on grooming result was “little or no effect”, the effect on locomotion entry is listed as “only a modest reduction” and the “effect on time spent immobile” value was “little or no effect”. Further, in data set [2], the concentration for half-maximal inhibition (IC50) turned out to be 100 nM. For the same compound, at human PDE2, the inhibition at 10 µM is -14%. The inhibition at 10 µM in data set [3] turned out to be 9%. Moreover, the IC50 in data set [4] is 30 nM and 0.014 µg/mL.
